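Compound exposure: 48 hours, 5 concentrations, 96-well plates. Abbreviation: GI50, concentration required for 50% inhibition of growth.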 Active and inactive are the calls of the source. No stated cut-off is given here; in the data, active = GI50 up to about 1.1 µM and inactive = higher.
Columns and labels:
Assay in all cases: DTP human tumour cell line panel, 48 h
786-0 = test system: 786-0
A498 = test system: A498
A549 = test system: A549
ACHN = test system: ACHN
BT-549 = test system: BT-549
CAKI-1 = test system: CAKI-1
CCRF-CEM = test system: CCRF-CEM
COLO 205 = test system: COLO 205
DU-145 = test system: DU-145
EKVX = test system: EKVX
HCC 2998 = test system: HCC 2998
HCT-116 = test system: HCT-116
HCT-15 = test system: HCT-15
HL-60 = test system: HL-60
HOP-62 = test system: HOP-62
HOP-92 = test system: HOP-92
HT-29 = test system: HT-29
Hs-578T = test system: Hs-578T
IGROV-1 = test system: IGROV-1
K562 = test system: K562
KM12 = test system: KM12
LOX IMVI = test system: LOX IMVI
M14 = test system: M14
MCF7 = test system: MCF7
MDA-MB-231 = test system: MDA-MB-231
MDA-MB-435 = test system: MDA-MB-435
MDA-N = test system: MDA-N
MOLT-4 = test system: MOLT-4
Malme-3M = test system: Malme-3M
NCI-H226 = test system: NCI-H226
NCI-H23 = test system: NCI-H23
NCI-H460 = test system: NCI-H460
NCI-H522 = test system: NCI-H522
NCI/ADR-RES = test system: NCI/ADR-RES
OVCAR-3 = test system: OVCAR-3
OVCAR-4 = test system: OVCAR-4
OVCAR-5 = test system: OVCAR-5
OVCAR-8 = test system: OVCAR-8
PC-3 = test system: PC-3
RPMI-8226 = test system: RPMI-8226
RXF 393 = test system: RXF 393
SF-268 = test system: SF-268
SF-295 = test system: SF-295
SF-539 = test system: SF-539
SK-MEL-28 = test system: SK-MEL-28
SK-MEL-2 = test system: SK-MEL-2
SK-MEL-5 = test system: SK-MEL-5
SK-OV-3 = test system: SK-OV-3
SN12C = test system: SN12C
SNB-19 = test system: SNB-19
SNB-75 = test system: SNB-75
SR = test system: SR
SW-620 = test system: SW-620
T47D = test system: T47D
TK-10 = test system: TK-10
U-251 = test system: U-251
UACC-257 = test system: UACC-257
UACC-62 = test system: UACC-62
UO-31 = test system: UO-31

Which GI50 (786-0) does the source give for `COc1ccc(-c2cc(-c3ccc(Nc4ccnc5cc(C(F)(F)F)ccc45)cc3)[nH]c(=O)c2C#N)c2ccccc12` here?
The GI50 was 21 µM (inactive).

What about the GI50 (A498) of the same molecule?
The GI50 was > 43 µM (inactive).

What about the GI50 (A549) of the same molecule?
The GI50 was > 100 µM (inactive).

What about the GI50 (ACHN) of the same molecule?
The GI50 was > 32.5 µM (inactive).

What about the GI50 (BT-549) of the same molecule?
Its GI50 is > 58.5 µM (inactive).

What about the GI50 (CAKI-1) of the same molecule?
The GI50 was > 100 µM (inactive).

And the GI50 (CCRF-CEM)?
The GI50 was > 20.9 µM (inactive).

What about the GI50 (COLO 205) of the same molecule?
The GI50 was > 37.7 µM (inactive).

What about the GI50 (DU-145) of the same molecule?
The GI50 was > 43.8 µM (inactive).

What about the GI50 (EKVX) of the same molecule?
Its GI50 is > 100 µM (inactive).

What about the GI50 (HCC 2998) of the same molecule?
Its GI50 is > 100 µM (inactive).

What about the GI50 (HCT-116) of the same molecule?
The GI50 was 17.5 µM (inactive).

What about the GI50 (HCT-15) of the same molecule?
The GI50 was greater than 100 µM.

What about the GI50 (HL-60) of the same molecule?
Its GI50 is > 100 µM (inactive).

And the GI50 (HOP-62)?
The GI50 was 11.2 µM (inactive).

And the GI50 (HOP-92)?
Its GI50 is > 100 µM (inactive).

What about the GI50 (HT-29) of the same molecule?
Its GI50 is > 25.7 µM (inactive).

What about the GI50 (Hs-578T) of the same molecule?
The GI50 was 35.7 µM (inactive).

What about the GI50 (IGROV-1) of the same molecule?
Its GI50 is > 100 µM (inactive).

What about the GI50 (K562) of the same molecule?
Its GI50 is > 100 µM (inactive).

What about the GI50 (KM12) of the same molecule?
Its GI50 is > 30.4 µM (inactive).

And the GI50 (LOX IMVI)?
The GI50 was 24.2 µM (inactive).

What about the GI50 (M14) of the same molecule?
The GI50 was > 42.7 µM (inactive).

And the GI50 (MCF7)?
The GI50 was > 29.5 µM (inactive).

What about the GI50 (MDA-MB-231) of the same molecule?
The GI50 was 17.7 µM (inactive).

What about the GI50 (MDA-MB-435) of the same molecule?
The GI50 was > 33.7 µM (inactive).

What about the GI50 (MDA-N) of the same molecule?
The GI50 was > 38.4 µM (inactive).

What about the GI50 (MOLT-4) of the same molecule?
Its GI50 is > 100 µM (inactive).

And the GI50 (Malme-3M)?
Its GI50 is > 41.2 µM (inactive).

And the GI50 (NCI-H226)?
The GI50 was > 55.3 µM (inactive).

And the GI50 (NCI-H23)?
The GI50 was 39.5 µM (inactive).

And the GI50 (NCI-H460)?
The GI50 was > 100 µM (inactive).

And the GI50 (NCI-H522)?
The GI50 was > 100 µM (inactive).

And the GI50 (NCI/ADR-RES)?
Its GI50 is > 100 µM (inactive).

And the GI50 (OVCAR-3)?
The GI50 was 38.7 µM (inactive).

What about the GI50 (OVCAR-4) of the same molecule?
Its GI50 is > 46 µM (inactive).

And the GI50 (OVCAR-5)?
The GI50 was > 61.2 µM (inactive).

And the GI50 (OVCAR-8)?
Its GI50 is > 46.3 µM (inactive).

And the GI50 (PC-3)?
The GI50 was > 100 µM (inactive).

And the GI50 (RPMI-8226)?
Its GI50 is > 100 µM (inactive).

What about the GI50 (RXF 393) of the same molecule?
Its GI50 is 15.2 µM (inactive).

What about the GI50 (SF-268) of the same molecule?
Its GI50 is 38.1 µM (inactive).

And the GI50 (SF-295)?
Its GI50 is 25.8 µM (inactive).

What about the GI50 (SF-539) of the same molecule?
The GI50 was 16.6 µM (inactive).

And the GI50 (SK-MEL-28)?
The GI50 was > 59.7 µM (inactive).

What about the GI50 (SK-MEL-2) of the same molecule?
Its GI50 is > 56 µM (inactive).

And the GI50 (SK-MEL-5)?
Its GI50 is > 100 µM (inactive).

What about the GI50 (SK-OV-3) of the same molecule?
Its GI50 is 10.2 µM (inactive).

And the GI50 (SN12C)?
Its GI50 is > 100 µM (inactive).

What about the GI50 (SNB-19) of the same molecule?
The GI50 was 18.8 µM (inactive).

And the GI50 (SNB-75)?
The GI50 was 11.2 µM (inactive).

What about the GI50 (SR) of the same molecule?
The GI50 was 12.6 µM (inactive).

And the GI50 (SW-620)?
The GI50 was > 100 µM (inactive).

What about the GI50 (T47D) of the same molecule?
Its GI50 is > 34 µM (inactive).

What about the GI50 (TK-10) of the same molecule?
The GI50 was 26.9 µM (inactive).

What about the GI50 (U-251) of the same molecule?
Its GI50 is 10.2 µM (inactive).

And the GI50 (UACC-257)?
The GI50 was > 100 µM (inactive).

And the GI50 (UACC-62)?
The GI50 was 88.5 µM (inactive).

What about the GI50 (UO-31) of the same molecule?
Its GI50 is > 35.6 µM (inactive).

What does the source list for `CC(Oc1ccc(Cl)cc1Cl)C(=O)NN1C(=O)CC(=O)NC1=S` (stereo unspecified)?
GI50 (786-0): > 100 µM (inactive); GI50 (A498): 90.8 µM (inactive); GI50 (A549): > 100 µM (inactive); GI50 (ACHN): 88.1 µM (inactive); GI50 (BT-549): > 100 µM (inactive); GI50 (CAKI-1): 82 µM (inactive); GI50 (COLO 205): > 100 µM (inactive); GI50 (DU-145): > 100 µM (inactive); GI50 (EKVX): > 100 µM (inactive); GI50 (HCC 2998): > 100 µM (inactive); GI50 (HCT-116): > 100 µM (inactive); GI50 (HCT-15): 86.9 µM; GI50 (HL-60): 30.9 µM (inactive); GI50 (HOP-62): > 100 µM (inactive); GI50 (HOP-92): 39.6 µM (inactive); GI50 (HT-29): > 100 µM (inactive); GI50 (Hs-578T): > 100 µM (inactive); GI50 (IGROV-1): > 100 µM (inactive); GI50 (K562): > 100 µM (inactive); GI50 (KM12): > 100 µM (inactive); GI50 (LOX IMVI): 80 µM (inactive); GI50 (M14): > 100 µM (inactive); GI50 (MCF7): 76.7 µM (inactive); GI50 (MDA-MB-231): > 100 µM (inactive); GI50 (MDA-MB-435): > 100 µM (inactive); GI50 (MDA-N): > 100 µM (inactive); GI50 (Malme-3M): > 100 µM (inactive); GI50 (NCI-H226): 82.8 µM (inactive); GI50 (NCI-H23): > 100 µM (inactive); GI50 (NCI-H460): > 100 µM (inactive); GI50 (NCI-H522): > 100 µM (inactive); GI50 (NCI/ADR-RES): > 100 µM (inactive); GI50 (OVCAR-3): > 100 µM (inactive); GI50 (OVCAR-4): > 100 µM (inactive); GI50 (OVCAR-5): > 100 µM (inactive); GI50 (OVCAR-8): > 100 µM (inactive); GI50 (PC-3): > 100 µM (inactive); GI50 (RPMI-8226): 46 µM (inactive); GI50 (RXF 393): > 100 µM (inactive); GI50 (SF-268): > 100 µM (inactive); GI50 (SF-295): > 100 µM (inactive); GI50 (SF-539): > 100 µM (inactive); GI50 (SK-MEL-28): > 100 µM (inactive); GI50 (SK-MEL-2): 80.5 µM (inactive); GI50 (SK-MEL-5): > 100 µM (inactive); GI50 (SK-OV-3): > 100 µM (inactive); GI50 (SN12C): > 100 µM (inactive); GI50 (SNB-19): > 100 µM (inactive); GI50 (SNB-75): > 100 µM (inactive); GI50 (SR): > 100 µM (inactive); GI50 (SW-620): > 100 µM (inactive); GI50 (T47D): 31.8 µM (inactive); GI50 (TK-10): > 100 µM (inactive); GI50 (U-251): > 100 µM (inactive); GI50 (UACC-257): > 100 µM (inactive); GI50 (UACC-62): 36.5 µM (inactive); GI50 (UO-31): > 100 µM (inactive)
